From patent US20120022058A1, “4,5-DIHYDRO-1H-PYRAZOLE COMPOUNDS AND THEIR PHARMACEUTICAL USES” (Pfizer Inc., priority 2009, published 2012)
pIC50: −log10 of the molar value.

molecular target: T1, MR (Homo sapiens, UniProt P08235); experiment: Cell-Based Reporter Assay (Gal4 DBD-MR LBD luciferase reporter, antagonist mode); conditions: antagonist mode vs aldosterone at EC80; transfected human liver cells (Huh7); luciferase readout; Examples 3, 6, 12 and 13 tested in analogous format with minor variations;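 also: cells co-transfected with a Gal4 response element luciferase plasmid, compound exposure overnight before lysis and luminescence counting, IC50 reflects reduced aldosterone-stimulated reporter signal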
T1 construct: expressed in transfected cells; host or cells: Huh7 human liver cells, transient transfection
T1 sequence (P08235 726-964 limits assumed): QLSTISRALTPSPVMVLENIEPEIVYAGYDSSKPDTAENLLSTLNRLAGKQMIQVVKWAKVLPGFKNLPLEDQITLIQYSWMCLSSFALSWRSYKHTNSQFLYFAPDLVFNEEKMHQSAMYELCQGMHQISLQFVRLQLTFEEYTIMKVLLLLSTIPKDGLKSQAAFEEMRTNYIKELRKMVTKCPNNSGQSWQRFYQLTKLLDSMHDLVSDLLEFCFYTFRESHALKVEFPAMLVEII

| SMILES | pIC50 |
| --- | --- |
| Cc1nc(N2N=C(c3ccc(S(C)(=O)=O)cc3)C[C@@H]2C2CCCC2)ccc1C#N [Example 17, (R)-6-(5-cyclopentyl-3-(4-(methylsulfonyl)phenyl)-4,5-dihydro-1H-pyrazol-1-yl)-2-methylnicotinonitrile] | 8.08 |
| COc1cccc(C2=NN(c3ccc(C#N)c(C)n3)[C@@H](C3CCCC3)C2)n1 [Example 28, (R)-6-(5-cyclopentyl-3-(6-methoxypyridin-2-yl)-4,5-dihydro-1H-pyrazol-1-yl)-2-methylnicotinonitrile] | 7.01 |
| Cc1nc(N2N=C(c3ccc4c(c3)OCC(=O)N4)C[C@@H]2C2CCCC2)ccc1C#N [Example 46, (R)-6-(5-cyclopentyl-3-(3-oxo-3,4-dihydro-2H-benzo[b][1,4]oxazin-7-yl)-4,5-dihydro-1H-pyrazol-1-yl)-2-methylnicotinonitrile] | 7.38 |
| CCOc1nc(C2=NN(c3ccc(C#N)c(C)n3)[C@@H](C3CCCC3)C2)ccc1C(=O)O [Example 51, (R)-6-(1-(5-cyano-6-methylpyridin-2-yl)-5-cyclopentyl-4,5-dihydro-1H-pyrazol-3-yl)-2-ethoxynicotinic acid] | 8.09 |
| Cc1nc(N2N=C(c3ccc4c(c3)CNC4=O)C[C@@H]2C2CCCC2)ccc1C#N [Example 30, (R)-6-(5-cyclopentyl-3-(1-oxoisoindolin-5-yl)-4,5-dihydro-1H-pyrazol-1-yl)-2-methylnicotinonitrile] | 8.01 |
| COc1ccc(C2=NN(c3ccc(C#N)c(C)n3)[C@@H](C3CCCC3)C2)cc1C(=O)O [Example 36, (R)-5-(1-(5-cyano-6-methylpyridin-2-yl)-5-cyclopentyl-4,5-dihydro-1H-pyrazol-3-yl)-2-methoxybenzoic acid] | 6.65 |
| Cc1nc(N2N=C(c3ccc4c(c3)CNC(=O)N4)C[C@@H]2C2CCCC2)ccc1C#N [Example 47, (R)-6-(5-cyclopentyl-3-(2-oxo-1,2,3,4-tetrahydroquinazolin-6-yl)-4,5-dihydro-1H-pyrazol-1-yl)-2-methylnicotinonitrile] | 7.92 |
| Cc1cc(C2=NN(c3ccc(C#N)c(C)n3)[C@@H](C3CCCC3)C2)ccc1C(N)=O [Example 24, (R)-4-(1-(5-cyano-6-methylpyridin-2-yl)-5-cyclopentyl-4,5-dihydro-1H-pyrazol-3-yl)-2-methylbenzamide] | 7.60 |
| COC(=O)c1ccc(C2=NN(c3ccc(C#N)c(C)c3)C(C3CCCC3)C2)nc1OC (stereo not shown) [Example 1, Methyl 6-(1-(4-cyano-3-methylphenyl)-5-cyclopentyl-4,5-dihydro-1H-pyrazol-3-yl)-2-methoxynicotinate] | 7.46 |
| CC(=O)Nc1cccc(C2=NN(c3ccc(C#N)c(C)n3)[C@@H](C3CCCC3)C2)n1 [Example 66, (R)—N-(6-(1-(5-cyano-6-methylpyridin-2-yl)-5-cyclopentyl-4,5-dihydro-1H-pyrazol-3-yl)pyridin-2-yl)acetamide] | 6.59 |
| Cc1nc(N2N=C(c3ccc(S(N)(=O)=O)cc3)C[C@@H]2C2CCCC2)ccc1C#N [Example 20, (R)-4-(1-(5-cyano-6-methylpyridin-2-yl)-5-cyclopentyl-4,5-dihydro-1H-pyrazol-3-yl)benzenesulfonamide] | 7.71 |
| COc1cc(N2N=C(c3ccc(C(=O)O)c(OC)n3)CC2C2CCCC2)ccc1C#N (stereo not shown) [Example 6, 6-[1-(4-cyano-3-methoxy-phenyl)-5-cyclopentyl-4,5-dihydro-1H-pyrazol-3-yl]-2-methoxy-nicotinic acid] | 8.05 |
| Cc1nc(N2N=C(c3ccc4c(c3)NC(=O)CO4)C[C@@H]2C2CCCC2)ccc1C#N [Example 19, (R)-6-(5-cyclopentyl-3-(3-oxo-3,4-dihydro-2H-benzo[b][1,4]oxazin-6-yl)-4,5-dihydro-1H-pyrazol-1-yl)-2-methylnicotinonitrile] | 7.97 |
| COc1cc(C2=NN(c3ccc(C#N)c(C)n3)[C@@H](C3CCCC3)C2)ccc1O [Example 52, (R)-6-(5-cyclopentyl-3-(4-hydroxy-3-methoxyphenyl)-4,5-dihydro-1H-pyrazol-1-yl)-2-methylnicotinonitrile] | 7.21 |
| COc1cc(C(=O)O)ccc1C1=NN(c2ccc(C#N)c(C)n2)[C@@H](C2CCCC2)C1 [Example 39, (R)-methyl 4-(1-(5-cyano-6-methylpyridin-2-yl)-5-cyclopentyl-4,5-dihydro-1H-pyrazol-3-yl)-3-methoxybenzoic acid] | 8.15 |
| Cc1cc(C2=NN(c3ccc(C#N)c(C)n3)[C@@H](C3CCCC3)C2)ccc1C#N [Example 23, (R)-6-(3-(4-cyano-3-methylphenyl)-5-cyclopentyl-4,5-dihydro-1H-pyrazol-1-yl)-2-methylnicotinonitrile] | 6.95 |
| COc1cccc(C2=NN(c3ccc(C#N)c(C)n3)[C@@H](C3CCCC3)C2)c1 [Example 43, (R)-6-(5-cyclopentyl-3-(3-methoxyphenyl)-4,5-dihydro-1H-pyrazol-1-yl)-2-methylnicotinonitrile] | 6.89 |

| SMILES | pIC50 |
| --- | --- |
| CCOc1cc(C2=NN(c3ccc(C#N)c(C)n3)[C@@H](C3CCCC3)C2)ccc1C(=O)O [Example 41, (R)-4-(1-(5-cyano-6-methylpyridin-2-yl)-5-cyclopentyl-4,5-dihydro-1H-pyrazol-3-yl)-2-ethoxybenzoic acid] | 8.04 |
| CCOc1nc(C2=NN(c3ccc(C#N)c(C)c3)[C@@H](C3CCCC3)C2)ccc1C(N)=O [Example 55, (R)-6-(1-(4-cyano-3-methylphenyl)-5-cyclopentyl-4,5-dihydro-1H-pyrazol-3-yl)-2-ethoxynicotinamide] | 8.41 |
| Cc1nc(N2N=C(c3ccc(NS(C)(=O)=O)cc3)C[C@@H]2C2CCCC2)ccc1C#N [Example 25, (R)—N-(4-(1-(5-cyano-6-methylpyridin-2-yl)-5-cyclopentyl-4,5-dihydro-1H-pyrazol-3-yl)phenyl)methanesulfonamide] | 7.32 |
| COC(=O)c1ccc(C2=NN(c3ccc(C#N)c(C)n3)[C@@H](C3CCCC3)C2)cc1 [Example 14, (R)-methyl 4-(1-(5-cyano-6-methylpyridin-2-yl)-5-cyclopentyl-4,5-dihydro-1H-pyrazol-3-yl)benzoate] | < 5.65 |
| CCOc1cc(C2=NN(c3ccc(C#N)c(C)n3)[C@@H](C3CCCC3)C2)ccc1C(N)=O [Example 42, (R)-4-(1-(5-cyano-6-methylpyridin-2-yl)-5-cyclopentyl-4,5-dihydro-1H-pyrazol-3-yl)-2-ethoxybenzamide] | 8.30 |
| Cc1nc(N2N=C(c3ccc4c(c3)C(=O)NC4)C[C@@H]2C2CCCC2)ccc1C#N [Example 31, (R)-6-(5-cyclopentyl-3-(3-oxoisoindolin-5-yl)-4,5-dihydro-1H-pyrazol-1-yl)-2-methylnicotinonitrile] | 7.95 |
| Cc1nc(N2N=C(c3cccc(OC(C)C)n3)C[C@@H]2C2CCCC2)ccc1C#N [Example 67, (R)-6-(5-cyclopentyl-3-(6-isopropoxypyridin-2-yl)-4,5-dihydro-1H-pyrazol-1-yl)-2-methylnicotinonitrile] | 6.77 |
| COC(=O)c1ccc(C2=NN(c3ccc(C#N)c(C)c3)[C@@H](C3CCCC3)C2)nc1OC [Example 2] | 8.04 |
| Cc1nc(N2N=C(c3ccc(O)c(F)c3)C[C@@H]2C2CCCC2)ccc1C#N [Example 62, (R)-6-(5-cyclopentyl-3-(3-fluoro-4-hydroxyphenyl)-4,5-dihydropyrazol-1-yl)-2-methylnicotinonitrile] | 7.03 |
| COc1cc(C2=NN(c3ccc(C#N)c(C)n3)[C@@H](C3CCCC3)C2)ccc1CC(=O)O [Example 54, (R)-2-(4-(1-(5-cyano-6-methylpyridin-2-yl)-5-cyclopentyl-4,5-dihydro-1H-pyrazol-3-yl)-2-methoxyphenyl)acetic acid] | 7.02 |
| Cc1nc(N2N=C(c3ccc4c(c3)C(C)(C)OC(=O)N4)C[C@@H]2C2CCCC2)ccc1C#N [Example 64, (R)-6-(5-cyclopentyl-3-(4,4-dimethyl-2-oxo-2,4-dihydro-1H-benzo[d][1,3]oxazin-6-yl)-4,5-dihydro-1H-pyrazol-1-yl)-2-methylnicotinonitrile] | 8.00 |
| Cc1nc(N2N=C(c3ccc(C(N)=O)cc3)C[C@@H]2C2CCCC2)ccc1C#N [Example 16, (R)-4-(1-(5-cyano-6-methylpyridin-2-yl)-5-cyclopentyl-4,5-dihydro-1H-pyrazol-3-yl)benzamide] | 7.87 |
| COc1cc(C2=NN(c3ccc(C#N)c(C)n3)[C@@H](C3CCCC3)C2)ccc1C#N [Example 26, (R)-6-(3-(4-cyano-3-methoxyphenyl)-5-cyclopentyl-4,5-dihydro-1H-pyrazol-1-yl)-2-methylnicotinonitrile] | 7.07 |
| COC(=O)c1ccc(C2=NN(c3ccc(C#N)c(C)n3)[C@@H](C3CCCC3)C2)c(OC)c1 [Example 38, (R)-methyl 4-(1-(5-cyano-6-methylpyridin-2-yl)-5-cyclopentyl-4,5-dihydro-1H-pyrazol-3-yl)-3-methoxybenzoate] | 7.09 |
| COC(=O)c1cc(C2=NN(c3ccc(C#N)c(C)n3)[C@@H](C3CCCC3)C2)ccc1S(C)(=O)=O [Example 35, (R)-methyl 5-(1-(5-cyano-6-methylpyridin-2-yl)-5-cyclopentyl-4,5-dihydro-1H-pyrazol-3-yl)-2-(methylsulfonyl)benzoate] | 8.05 |
| Cc1nc(N2N=C(c3ccc4ncn(C)c(=O)c4c3)C[C@@H]2C2CCCC2)ccc1C#N [Example 18, (R)-6-(5-cyclopentyl-3-(3-methyl-4-oxo-3,4-dihydroquinazolin-6-yl)-4,5-dihydro-1H-pyrazol-1-yl)-2-methylnicotinonitrile] | 8.72 |
| Cc1cc(C2=NN(c3ccc(C#N)c(C)n3)[C@@H](C3CCCC3)C2)cc(C)c1O [Example 57, (R)-6-(5-cyclopentyl-3-(4-hydroxy-3,5-dimethylphenyl)-4,5-dihydro-1H-pyrazol-1-yl)-2-methylnicotinonitrile] | 6.30 |
